According to US10449157B2, “Process for producing microcapsules comprising an active component encapsulated, protected and stabilised within a protein shell” (Anabio Technologies Limited, priority 2013, dated 2019):

Legend:
[1] = product literature; cited from earlier work
[2] = Electrophoretic mobility (zeta potential); type: physicochemical
[3] = Stability trials of free and encapsulated Creatine in water (HPLC)

| Compound | long term stability in water [1] | zeta potential [2] [mV] | Creatine concentration reduced by ([3]; 15 min incubation in water at room temperature) [%] | first-order degradation rate constant ([3]; in water at 25° C.) [per day] |
| --- | --- | --- | --- | --- |
| CN(CC(=O)O)C(=N)N.O [CREAPURE, Creatine Monohydrate] | no long term stability | – | – | – |
| CN(CC(=O)O)C(=N)N.O [commercial Creatine monohydrate, Creatine monohydrate] | – | −2.4 | 66 | 0.0263 |
